Data from patent US7022882B2, “NMDA receptor channel blocker with neuroprotective activity” (priority 2000, dated 2006).
“And” between values parts separate entries of the source, which are not always exact repeats. Equal entries are not always repeated. “Also recorded” adds a separate entry of the source. Where two headings read alike, the source gives them in different places.

What was measured:
[1] = tested on: cultured hippocampal neurons; assay: Kainate induced neuronal cell death in hippocampal cultures; assay type: cell-based, rat; details: 20 μM CNQX, 10 μM MK-801, 10 μM memantine or 10 μM NBTA
Description: FIG. 7. NBTA protects cultured hippocampal neurons from NMDA receptor-mediated excitotoxic cell death. Trypan blue exclusion assays of (A) control neurons and neurons exposed to 200 μM NMDA in the absence (B) or presence of 10 μM memantine (C); and in the presence of 10 μM NBTA (D). (E) Normalized cell death in the absence and presence of the lead. (F) Neuronal death induced by kainate in the absence or presence of 20 μM CNQX, 10 μM MK-801, 10 μM memantine or 10 μM NBTA. Data are mean±s.e., n=2000.
To evaluate the specificity of the neuroprotective effect of NBTA<its activity against kainate induced neuronal cell death was assessed.
(§1) Mixed hippocampal neuron/glia primary cultures were employed to assess the neuroprotective activities of the identified lead against NMDA receptor-mediated excitotoxic cell death. Primary culture of rat hippocampal neurons were prepared as previously described (Ferrer-Montiel A. V., et al., Nat. Biotechnol., 16(3):286–91, 1998; Schinder A. F., et al.; J. Neurosci., 16(19):6125–33, 1996). In brief, hippocampi from E17–E19 rat embryos were first taken out and incubated at 4° C. in a saline (BSS) containing (mM): 137 NaCl, 3.5 KCl, 0.4 KH2PO4, 0.33 Na2HPO4.7H2O, 5 TES, and 10 glucose, pH 7.4. Hippocampi were then incubated in 0.25% trypsin (1×) solution from Hyclone at 37° C. for 15 min. Tissues were then washed and resuspended in minimal essential medium (Earle's salt) supplemented with 10% heat-inactivated horse serum (Hyclone), 10% fetal bovine serum (Hyclone), 1 mM […], 22 mM glucose, 20U/ml penicillin and 20 ug/ml streptomycin. Digested hippocampi were eventually dissociated by pipetting through a Pasteur pipette. Cells were plated at a density of 5×10^4 cells/cm^2.

[2] = tested on: cultured rat hippocampal neurons; assay: Excitotoxic assay in hippocampal cultures, NMDA challenge, trypan blue exclusion; assay type: cell-based; details: 200 μM NMDA and 20 μM glycine for 20 min; for protection from NMDA receptor-mediated cell death: 10 μM, cell death by NMDA alone = 100%
Description: as §1
Neurons cultured 14–17 days were used for the excitotoxic assays. Cultured medium was first removed and rinsed with BSS supplemented with 1 mM CaCl2, and 20 μM glycine. Neurons were challenged with 200 μM NMDA in the absence and presence of […] for 20 min at room temperature. The insults were terminated by removing the BSS containing NMDA. To reduce the excitotoxic effect due to the residual NMDA, the culture medium was supplemented with 20 μM MK-801. Cell cultures were returned to the incubator (37° C., 5% CO2). Cell death was assessed 20–24 hours after the challenge with trypan blue (0.04%) exclusion assays. Fraction of dead cells in cultures treated with control buffer (8±3%, n=2000) was subtracted as background.
NMDA insult alone caused significant cell death of 45±6% (n=2000). Neuroprotective activities as described in the Detailed Description of the Invention were expressed as percentage of net cell death in the absence and presence of 10 μM of the known NMDA receptor blockers and the identified compound. Cell death elicited by NMDA alone was considered as 100%. The assays were repeated in 4 separated occasions with different culture preparations.

[3] = target: T1, NMDA receptors (NR1/NR2A) (Homo sapiens, UniProt Q05586+Q12879); details: literature values; cited from earlier work
[4] = target: NMDA receptor, NR1 mutant (N616Q) (Homo sapiens, UniProt Q05586+Q12879, N616Q); assay: Block of NMDA receptor with NR1 mutant N616Q in oocytes; assay type: cell-based; details: versus wild type
[5] = target: T2, non-NMDA glutamate receptor GluR1 (Homo sapiens, UniProt P42261); assay: Two-electrode voltage-clamp block of GluR1 expressed in Xenopus oocytes; assay type: cell-based
T2 construct: expressed in transfected cells
Description: Recombinant NMDA receptor subunits, NR1 (Planells-Cases R, et al., Proc. Natl. Acad. Sci. USA, 90(11):5057–61, 1993) and NR2A (Le Bourdelles B, et al., J. Neurochem., 62(6):2091–8, 1994) was used for screening the dipeptidomimetic combinatorial library. cDNAs of NR1 and NR2A were linearized with NOT1. cRNAs encoding NR1 and NR2A were synthesized from the linearized cDNAs templates according to manufacturer specifications (Ambion). NR1 mutant (N616Q) was used to examine the site of action of the identified lead. The NR1A mutants were linearized with NOT1 and use of T7 for sense. cDNA of human glutamate receptor/GluR1 (Sun W., et al., Proc. Natl. Acad. Sci. USA, 89:1443–1447, 1992) was linearized with Hind III and the use of T3 promoter for the synthesis of its […]. cDNAs were quantified by spectroscopy and the quality were assessed by gel electrophoresis. […]
(§2) On days two to six following injection of cRNAs, whole oocyte currents were recorded with standard two-electrode voltage-clamp. […] The blocking activities of the library were assessed at 10 μM (assuming the molecular weight is ˜500). […] Blocking activity of the mixture is expressed as fraction of response blocked by the mixture. […]

[6] = target: NMDA receptor, N616Q (NR1 mutant) with N614G (NR2 mutant) (Homo sapiens, UniProt Q05586+Q12879, N614G/N616Q); assay: Block of NMDA receptor with coexpressed N616Q (NR1 mutant) and N614G (NR2 mutant) in oocytes; assay type: cell-based; details: versus N616Q alone
Description: (§3) In contrast, mutations at N614G, N615G and S616G in the M2 segment had no effect on NBTA binding.
(§4) Oocytes of stage V and VI were surgically removed from the ovaries of […] anesthetized with 0.4% ethyl 3-amino-benzoate methanesulfonic acid-Clusters of oocytes were incubated with 2 mg/ml collagenase (Life Technologies, Gaithersburg, Md.) for 1 hour 20 min in Ca^2+-free solution comprised of (mM) 82.5 NaCl, 2.5 KCl, 1 MgCl2, 5 HEPES, pH 7.4 with vigorous agitation to remove the follicular cell layer. Oocytes were then washed extensively with the Ca^2+-free solution to remove the collagenase. Oocytes were eventually incubated in Barth's solution consisted of (in mM): 96 NaCl, 2 mM KCl, 1.8 CaCl2, 1 MgCl2, 5 HEPES supplemented with 100U/ml penicillin and 100 ug/ml streptomycin, pH 7.4 at 17° C. Oocytes were injected with 5–15 ng of cRNA encoding NR1 or its mutant premixed with three-fold amount of cRNA encoding NR2A.
as §2

[7] = target: T1, NMDA receptors (NR1/NR2A); assay: Two-electrode voltage-clamp block of recombinant NMDA receptors expressed in Xenopus oocytes; assay type: cell-based
Description: Oocytes of stage V and VI were surgically removed from the ovaries of Xenopus oocytes anesthetized with 0.4% ethyl 3-amino-benzoate methanesulfonic acid-Clusters of oocytes were incubated with 2 mg/ml collagenase (Life Technologies, Gaithersburg, Md.) for 1 hour 20 min in Ca^2+-free solution comprised of (mM) 82.5 NaCl, 2.5 KCl, 1 MgCl2, 5 HEPES, pH 7.4 with vigorous agitation to remove the follicular cell layer. Oocytes were then washed extensively with the Ca^2+-free solution to remove the collagenase. Oocytes were eventually incubated in Barth's solution consisted of (in mM): 96 NaCl, 2 mM KCl, 1.8 CaCl2, 1 MgCl2, 5 HEPES supplemented with 100U/ml penicillin and 100 ug/ml streptomycin, pH 7.4 at 17° C. Oocytes were injected with 5–15 ng of cRNA encoding NR1 or its mutant premixed with three-fold amount of cRNA encoding NR2A.
On days two to six following injection of cRNAs, whole oocyte currents were recorded with standard two-electrode voltage-clamp. All electrophysiological studies, unless otherwise stated, were performed in Ba^2+/flufenamic-Ringer's solution (in mM: 10 HEPES pH7.5, 115 NaCl, 2.8 KCl, 2.0 BaCl2, 0.1 flufenamic, 0.1 niflumic acid) at ambient temperature as previously described (Ostresh J. M., et al., J. Org. Chem., 63:8622–8623, 1998; Nefzi A., et al., Tetrahedron, 55:335–344, 1999). Both current and voltage electrodes were filled with 3M KCl and have a tested resistance of 0.5–1 MOhm. The blocking activities of the library were assessed at 10 μM (assuming the molecular weight is ˜500). […] Inward currents were elicited from a holding potential of −80 mV except where indicated. […] Blocking activity of the mixture is expressed as fraction of response blocked by the mixture. Dose-response curves were fitted to the Hill equation:
[formula] where y is the ratio of current in the presence and presence of blocker, [x] is the blocker concentration, and IC50 and nH represent the concentration blocks 50% of response and Hill coefficient, respectively. Current-voltage relationships were measured first in the absence and then in the presence of a given concentration of lead at a specified membrane holding potential, and the ratio of these currents was plotted as a function of the holding potential. Analysis of the voltage dependent block current was performed according to the model proposed by Woodhull (Woodhull A. M., J. Gen. Physiol., 61:687–708, 1973). Data were fitted with the equation according to Zarei and Dani (Zarei M. M. and Dani J. A., J. Gen. Physiol., 1103(2):231–48, 1994):
[formula] where Ib and Ic are currents recorded during the blockade and control, respectively; [B] is the concentration of the blocker; Kd is the dissociation constant of the blocker at 0 mV; δ is the fraction of the membrane field sensed by the blocker as it binds to its site; V is the command voltage; R is the gas constant; T is the absolute temperature; F is the Faraday's number; z is the valence of the blocker.

NMDA receptor, N615G = NMDA receptor, N615G (Homo sapiens, UniProt Q05586+Q12879, N615G); assay: Block of NMDA receptor with N615G mutation in oocytes; assay type: cell-based; details: versus wild type
Description: as §3, §4, §2

NMDA receptor, S616G = NMDA receptor, S616G (Homo sapiens, UniProt Q05586+Q12879, S616G); assay: Block of NMDA receptor with S616G mutation in oocytes; assay type: cell-based; details: versus wild type
Description: as §3, §4, §2

[8] = target: NMDA receptor, N614G (NR2 mutant) (Homo sapiens, UniProt Q05586+Q12879, N614G); assay: Block of NMDA receptor with N614G mutation in oocytes; assay type: cell-based; details: versus wild type
Description: as §3, §4, §2

[9] = target: NMDA receptor, NR2A tryptophan 606 to leucine (Homo sapiens, UniProt Q05586+Q12879, W606L); assay: Block of NMDA receptor with NR2A tryptophan 606 to leucine substitution in oocytes; assay type: cell-based; details: versus wild type
Description: as §3, §4, §2

NMDA receptor, NR1 N616R = NMDA receptor, NR1 N616R (Homo sapiens, UniProt Q05586+Q12879, N616R); assay: Block of NMDA receptor with NR1 N-site mutant N616R in oocytes; assay type: cell-based; details: versus wild type

T2 sequence (P42261 19-906): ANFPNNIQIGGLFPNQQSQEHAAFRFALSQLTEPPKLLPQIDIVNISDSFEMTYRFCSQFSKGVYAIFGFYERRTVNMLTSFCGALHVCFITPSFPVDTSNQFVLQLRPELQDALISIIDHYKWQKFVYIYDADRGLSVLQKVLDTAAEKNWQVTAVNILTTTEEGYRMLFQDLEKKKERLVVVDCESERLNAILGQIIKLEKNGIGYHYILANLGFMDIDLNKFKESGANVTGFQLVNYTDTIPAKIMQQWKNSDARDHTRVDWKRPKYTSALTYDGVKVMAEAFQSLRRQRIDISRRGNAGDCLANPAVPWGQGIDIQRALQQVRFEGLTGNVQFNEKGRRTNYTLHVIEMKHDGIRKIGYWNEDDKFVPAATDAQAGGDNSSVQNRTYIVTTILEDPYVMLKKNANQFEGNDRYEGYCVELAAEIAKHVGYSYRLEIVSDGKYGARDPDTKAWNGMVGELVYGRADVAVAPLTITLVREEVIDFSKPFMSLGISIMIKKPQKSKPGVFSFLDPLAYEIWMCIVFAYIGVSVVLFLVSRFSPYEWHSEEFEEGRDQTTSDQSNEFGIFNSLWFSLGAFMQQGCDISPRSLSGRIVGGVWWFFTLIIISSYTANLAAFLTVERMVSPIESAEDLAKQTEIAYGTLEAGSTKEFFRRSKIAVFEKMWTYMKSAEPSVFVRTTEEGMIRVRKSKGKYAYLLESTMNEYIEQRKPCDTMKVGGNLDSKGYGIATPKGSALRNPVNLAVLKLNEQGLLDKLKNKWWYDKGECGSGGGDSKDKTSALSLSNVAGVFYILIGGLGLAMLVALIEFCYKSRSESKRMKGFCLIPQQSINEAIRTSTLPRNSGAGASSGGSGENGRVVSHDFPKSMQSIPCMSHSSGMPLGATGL
T1 sequence (Q12879 23-1464, other chains not shown): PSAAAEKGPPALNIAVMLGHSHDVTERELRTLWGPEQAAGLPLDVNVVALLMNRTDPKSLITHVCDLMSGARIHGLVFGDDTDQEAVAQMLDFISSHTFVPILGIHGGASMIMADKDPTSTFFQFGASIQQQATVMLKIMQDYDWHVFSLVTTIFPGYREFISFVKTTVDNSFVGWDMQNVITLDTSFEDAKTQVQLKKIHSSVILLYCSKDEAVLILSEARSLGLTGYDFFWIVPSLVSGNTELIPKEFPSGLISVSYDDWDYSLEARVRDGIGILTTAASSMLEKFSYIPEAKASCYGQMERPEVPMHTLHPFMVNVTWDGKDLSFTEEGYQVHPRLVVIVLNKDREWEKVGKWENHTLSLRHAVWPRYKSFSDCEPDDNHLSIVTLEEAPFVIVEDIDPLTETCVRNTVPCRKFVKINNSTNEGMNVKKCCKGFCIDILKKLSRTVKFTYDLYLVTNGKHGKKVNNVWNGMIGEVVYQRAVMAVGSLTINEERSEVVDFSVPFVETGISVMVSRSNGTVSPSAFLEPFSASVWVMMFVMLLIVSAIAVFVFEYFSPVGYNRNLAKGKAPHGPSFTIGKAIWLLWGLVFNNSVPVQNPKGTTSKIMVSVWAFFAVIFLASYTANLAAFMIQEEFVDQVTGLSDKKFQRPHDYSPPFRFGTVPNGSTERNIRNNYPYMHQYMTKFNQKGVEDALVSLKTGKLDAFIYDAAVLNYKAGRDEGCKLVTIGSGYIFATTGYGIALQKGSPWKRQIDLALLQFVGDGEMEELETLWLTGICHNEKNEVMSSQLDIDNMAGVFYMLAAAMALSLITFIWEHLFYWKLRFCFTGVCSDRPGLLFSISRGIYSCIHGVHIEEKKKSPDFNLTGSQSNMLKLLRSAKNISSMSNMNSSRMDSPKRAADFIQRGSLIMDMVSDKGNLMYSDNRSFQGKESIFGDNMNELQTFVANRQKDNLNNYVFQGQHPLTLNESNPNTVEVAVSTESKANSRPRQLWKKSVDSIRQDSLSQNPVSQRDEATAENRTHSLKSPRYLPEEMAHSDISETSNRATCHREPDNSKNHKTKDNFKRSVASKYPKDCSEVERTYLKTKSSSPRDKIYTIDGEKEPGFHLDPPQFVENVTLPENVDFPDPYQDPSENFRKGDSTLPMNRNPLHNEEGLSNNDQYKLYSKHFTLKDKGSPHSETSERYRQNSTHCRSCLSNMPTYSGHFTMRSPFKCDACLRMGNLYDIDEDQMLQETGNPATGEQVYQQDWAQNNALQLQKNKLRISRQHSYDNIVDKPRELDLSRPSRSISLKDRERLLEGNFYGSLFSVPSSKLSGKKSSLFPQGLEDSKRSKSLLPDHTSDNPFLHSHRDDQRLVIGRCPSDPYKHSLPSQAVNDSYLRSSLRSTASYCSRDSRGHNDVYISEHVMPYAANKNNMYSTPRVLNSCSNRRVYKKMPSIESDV
NMDA receptor, NR1 mutant (N616Q), sequence (Q12879 23-1464, other chains not shown): as above

In the case of `N#Cc1cc2c(cc1[N+](=O)[O-])=NC(=O)C(=O)N=2` [CNQX, 6-cyano-7 nitroquinoxaline-2,3-dione], the “effect on neuronal cell death induced by kainate” value (“effect … by kainate” for short) [1] is reported as “protects neurons”.
In the case of `C[C@]12N[C@H](Cc3ccccc31)c1ccccc12` [MK-801], the “effect … by kainate” value [1] is reported as “protect neurons as well, though not as effectively as CNQX” and the “protection from NMDA receptor-mediated cell death” value (“protection” below) [2] is reported as 89±1%.
For `[Mg+2]` [Mg^2+], the “δ, fraction of the membrane field sensed by the blocker” value (“δ, fraction” below) [3] is given as about 0.77.
In the case of `CCC(C)C(N)CN(Cc1ccccc1)C(CNCc1ccccc1)Cc1ccc(O)cc1` (stereo not shown) [NBTA], the “change of blocking activity by replacement of N616 for glutamine” value [4] is reported as “only slightly reduces”, the “block of GluR1” value ([5]; 1 μM) is reported as “not” and the “effect on GluR1 / AMPA receptors” value ([5]; even at 1 mM / mM concentration range) is reported as “no effect at all”. The “binding with coexpressed N616Q and N614G compared with N616Q alone” value [6] was “similar”, the “use dependence of NMDA receptor block” value ([7]; 0.1 μM, repetitive pulses of glutamate (200 μM) and glycine (20 μM), -80 mV) was “progressive block; also recorded: progressive blockade” and the “block of NMDA current” value ([7]; 1 μM compound, -80 mV) was 70±3% and ~95%. The IC50 ([7]; Hill equation fit, n=6, read-out: IC50, wild-type NMDA receptors (NR1/NR2A)) was 80 nM, the “δ, fraction” value ([7]; Woodhull model of voltage-dependent block) was 0.56 and the “fraction of transmembrane electric field traversed to reach binding site” value ([7]; from δ) was about 56%. The “voltage dependence of NMDA current reduction” value ([7]; voltage-ramp protocol, 200 μM L-glutamic acid plus 20 μM glycine) was “voltage-dependent”, the “effect of N615G mutation on binding” value (NMDA receptor, N615G) was “no effect” and the “effect of S616G mutation on binding” value (NMDA receptor, S616G) was “no effect”. For the same compound, the “effect of N614G mutation on binding” value [8] was “no effect”, the “effect … by kainate” value [1] was “no effect” and the “reduction of blocking activity by tryptophan to leucine substitution in NR2A” value [9] was 4.7 fold. The “reduction of blocking activity by N616R substitution” value (NMDA receptor, NR1 N616R) was 275 fold and the “protection” value [2] was 83±2%.
In the case of `CN[C@H](CC(=O)O)C(=O)O` [NMDA, N-methyl-D aspartate], the “cell death induced by NMDA” value ([2]; no blocker) is reported as 50±3% and 45±6%.
For `CC12CC3CC(C)(C1)CC(N)(C3)C2` [memantine, 1-amino-3,5-dimethyladamantane], the “δ, fraction” value [3] is given as about 0.77, the “effect … by kainate” value [1] is given as “protect neurons as well, though not as effectively as CNQX” and the “protection” value [2] is given as 93±1%.
